Bounds are passed on as bounds.

In assay [1] the test system is Phospho-Rb (Ser807/811) in SW1573-CDK4 KO cells. The assay is described as follows: Phospho-Rb expression inhibition in SW1573-CDK4 KO cells quantified by in cell Western. It counts as cell-based. Particulars: Homo sapiens, 24 hours, read-out: SW1573 CDK4 KO pRb IC50. Here is the method:
(§1) Parental SW1573 cells were obtained from the American Type Culture Collection (ATCC). CDK4 or CDK6 gene in […] cells was knocked out using the CRISPR-Cas9 technology. First, gRNA complex of CDK4 or CDK6 was prepared with Alt-R CRISPR-Cas9 tracrRNA and crRNA CDK4 (5′-[…]-3′ (SEQ ID NO: 4)) or CDK6 (5′-[…]-3′ (SEQ ID NO. 5)) (IDT-Integrated DNA Technologies), and then ribonucleoprotein (RNP) complex of CDK4 or CDK6 was prepared with respective gRNA complex and Alt-R S.p. Cas9 Nuclease V3 (IDT-Integrated DNA Technologies). Next, 5×10^4/10 μL SWJ1573 cells were electroporated with the CDK4 or CDK6 RNP complex and Alt-R Cas9 Electroporation Enhancer using Neon Transfection System (Thermo Fisher). Cells were then plated in a 96-well plate to select single clones for validation of CDK4 or CDK6 knockout by western blot analysis.
(§2) MCF7 cells were obtained from American Type Culture Collection (ATCC, HTB-22). SW1573-CDK6 KO and SW1573-CDK4 KO cells were generated by the CRISPR-Cas9 technology. All cells were plated in 96-well plates (VWR #10062-900, or Corning #3904) in 90 uL culture medium at a density of 20,000 cells/well in the respective growth medium containing 10% FBS and 1% Penicillin Streptomycin, and then incubated at 37° C. overnight. The following day, the test compound was administered to the cells by using 1000× compound stock solution prepared in DMSO at various concentrations. 1000× compound stock solution was first diluted in culturing medium to 10×, then 10 uL compound medium was added to each well in the cell plates. After administration of the compound, the cells were then incubated at 37° C. for 24 hours. Upon completion, the cells were washed with PBS briefly. 150 uL/well of 4% formaldehyde was added and the plates were incubated at room temperature for 20 mins. The cells were washed with PBS briefly, and permeabilized with 150 uL/well of ice cold 100% methanol for 10 mins. The cells were washed with PBS briefly and blocked with 100 uL/well LI-COR blocking buffer for 1 hr at room temperature with gentle shaking. The cells were incubated overnight at 4° C. with 50 uL primary antibody rabbit anti-Phospho-Rb (Ser807/811) (1: 500, Cell Signaling, #8516) and anti-Rb (1:200, Santa Cruz, sc-73598) diluted in Intercept Blocking Buffer (LI-COR, #927-60001) containing 0.1% Tween 20. The next day, the cells were washed with 200 uL PBS containing 0.1% Tween 20, 5×5 mins at room temperature with gentle shaking, and incubated with 50 uL secondary antibody, IRDye® 800CW Goat anti-Rabbit IgG (1:1000, LI-COR, #926-32211) and IRDye®680RD Goat anti-Mouse IgG (1:1000, LI-COR, #926-68070), in LI-COR blocking buffer with 0.2% Tween 20 for 1 hr at room temperature with gentle shaking. The cells were washed with 200 uL PBS containing 0.1% Tween 20, 5×5 mins at room temperature with gentle shaking. The cells were washed with PBS for 5 mins. 100 uL fresh PBS was added to each well and the plates were imaged on a LI-COR Odyssey CLX plate reader.

Assay [2] concerns Phospho-Rb (Ser807/811) in SW1573-CDK6 KO cells. The assay is described as follows: Phospho-Rb expression inhibition in SW1573-CDK6 KO cells quantified by in cell Western. Format: cell-based. Particulars: Homo sapiens, 24 hours, read-out: SW1573 CDK6 KO pRb IC50. Here is the method: as §1, §2

As for `CC(C)n1c(C(C)(C)O)nc2c(F)cc(-c3nc(N[C@@H]4C[C@H]5CO[C@H](O5)[C@H]4O)ncc3Cl)cc21` [Compound 1, (1S,3R,4S,5R)-3-((5-chloro-4-(4-fluoro-2-(2-hydroxypropan-2-yl)-1-isopropyl-1H-benzo[d]imidazol-6-yl)pyrimidin-2-yl)amino)-6,8-dioxabicyclo[3.2.1]octan-4-ol], the figures for the IC50 in assay [1] and in assay [2] were greater than 1000 nM and no more than 40 nM, respectively.
In the same order, the values of `Cc1nc2c(F)cc(-c3nc(N[C@@H]4C[C@H]5CO[C@H](O5)[C@H]4O)ncc3Cl)cc2n1C(C)C` [Compound 25, (1S,3R,4S,5R)-3-((5-chloro-4-(4-fluoro-1-isopropyl-2-methyl-1H-benzo[d]imidazol-6-yl)pyrimidin-2-yl)amino)-6,8-dioxabicyclo[3.2.1]octan-4-ol] are greater than 1000 nM and no more than 40 nM.
On the same counts, the results for `Cc1c(C)n(C(C)C)c2cc(-c3nc(N[C@@H]4C[C@H]5CO[C@H](O5)[C@H]4O)ncc3Cl)ccc2c1=O` [Compound 191, 7-(5-chloro-2-(((1S,3R,4S,5R)-4-hydroxy-6,8-dioxabicyclo[3.2.1]octan-3-yl)amino)pyrimidin-4-yl)-1-isopropyl-2,3-dimethylquinolin-4(1H)-one] are greater than 1000 nM and 150 to 1000 nM.
Regarding `CNCc1c(C)c(=O)c2ccc(-c3nc(N[C@@H]4C[C@H]5CO[C@H](O5)[C@H]4O)ncc3F)cc2n1C(C)C` [Compound 194, 7-(5-fluoro-2-(((1S,3R,4S,5R)-4-hydroxy-6,8-dioxabicyclo[3.2.1]octan-3-yl)amino)pyrimidin-4-yl)-1-isopropyl-3-methyl-2-((methylamino)methyl)quinolin-4(1H)-one], the values for the IC50 in assay [1] and in assay [2] were greater than 1000 nM and 40 to 150 nM, respectively.
In the same order, the values of `Cc1c(CN(C)C)n(C(C)C)c2cc(-c3nc(N[C@@H]4C[C@H]5CO[C@H](O5)[C@H]4O)ncc3F)ccc2c1=O` [Compound 195, 2-((dimethylamino)methyl)-7-(5-fluoro-2-(((1S,3R,4S,5R)-4-hydroxy-6,8-dioxabicyclo [3.2.1]octan-3-yl)amino)pyrimidin-4-yl)-1-isopropyl-3-methylquinolin-4(1H)-one] are greater than 1000 nM and no more than 40 nM.
With `Cc1c(CN2CCC2)n(C(C)C)c2cc(-c3nc(N[C@@H]4C[C@H]5CO[C@H](O5)[C@H]4O)ncc3F)ccc2c1=O` [Compound 196, 2-(azetidin-1-ylmethyl)-7-(5-fluoro-2-(((1S,3R,4S,5R)-4-hydroxy-6,8-dioxabicyclo[3.2.1]octan-3-yl)amino)pyrimidin-4-yl)-1-isopropyl-3-methylquinolin-4(1H)-one], the IC50 in assay [1] is greater than 1000 nM; in assay [2], 40 to 150 nM.
In the same order, the values of `Cc1c(CN2CC(F)C2)n(C(C)C)c2cc(-c3nc(N[C@@H]4C[C@H]5CO[C@H](O5)[C@H]4O)ncc3F)ccc2c1=O` [Compound 197, 7-(5-fluoro-2-(((1S,3R,4S,5R)-4-hydroxy-6,8-dioxabicyclo[3.2.1]octan-3-yl)amino)pyrimidin-4-yl)-2-((3-fluoroazetidin-1-yl)methyl)-1-isopropyl-3-methylquinolin-4(1H)-one] are greater than 1000 nM and 40 to 150 nM.
In the same order, the values of `Cc1c(CN2[C@@H](C)COC[C@@H]2C)n(C(C)C)c2cc(-c3nc(N[C@@H]4C[C@H]5CO[C@H](O5)[C@H]4O)ncc3F)ccc2c1=O` [Compound 199, 2-(((3S,5S)-3,5-dimethylmorpholino)methyl)-7-(5-fluoro-2-(((1S,3R,4S,5R)-4-hydroxy-6,8-dioxabicyclo[3.2.1]octan-3-yl)amino)pyrimidin-4-yl)-1-isopropyl-3-methylquinolin-4(1H)-one] are 150 to 1000 nM and no more than 40 nM.
On the same counts, the results for `CC(C)n1c(CN2[C@@H](C)COC[C@@H]2C)c(F)c(=O)c2ccc(-c3nc(N[C@@H]4C[C@H]5CO[C@H](O5)[C@H]4O)ncc3Cl)cc21` [Compound 201, 7-(5-chloro-2-(((1S,3R,4S,5R)-4-hydroxy-6,8-dioxabicyclo[3.2.1]octan-3-yl)amino)pyrimidin-4-yl)-2-(((3S,5S)-3,5-dimethylmorpholino)methyl)-3-fluoro-1-isopropylquinolin-4(1H)-one] are greater than 1000 nM and 40 to 150 nM.
Consider `CC(C)n1c(CN2CC[C@@H](F)C2)c(F)c(=O)c2ccc(-c3nc(N[C@@H]4C[C@H]5CO[C@H](O5)[C@H]4O)ncc3F)cc21` [Compound 202, 3-fluoro-7-(5-fluoro-2-(((1S,3R,4S,5R)-4-hydroxy-6,8-dioxabicyclo[3.2.1]octan-3-yl)amino)pyrimidin-4-yl)-2-(((R)-3-fluoropyrrolidin-1-yl)methyl)-1-isopropylquinolin-4(1H)-one], for which the results for the IC50 in assay [1] and in assay [2] were greater than 1000 nM and 40 to 150 nM, respectively.
On the same counts, the results for `CC(C)n1c(CN2[C@@H](C)COC[C@@H]2C)c(C(F)F)c(=O)c2ccc(-c3nc(N[C@@H]4C[C@H]5CO[C@H](O5)[C@H]4O)ncc3Cl)cc21` [Compound 204, 7-(5-chloro-2-(((1S,3R,4S,5R)-4-hydroxy-6,8-dioxabicyclo[3.2.1]octan-3-yl)amino)pyrimidin-4-yl)-3-(difluoromethyl)-2-(((3S,5S)-3,5-dimethylmorpholino)methyl)-1-isopropylquinolin-4(1H)-one] are greater than 1000 nM and 40 to 150 nM.
With `CC(C)n1c(CN2[C@@H](C)COC[C@@H]2C)cc(=O)c2ccc(-c3nc(N[C@@H]4C[C@H]5CO[C@H](O5)[C@H]4O)ncc3Cl)cc21` [Compound 205, 7-(5-chloro-2-(((1S,3R,4S,5R)-4-hydroxy-6,8-dioxabicyclo[3.2.1]octan-3-yl)amino)pyrimidin-4-yl)-2-(((3S,5S)-3,5-dimethylmorpholino)methyl)-1-isopropylquinolin-4(1H)-one], the figures for the IC50 in assay [1] and in assay [2] were greater than 1000 nM and 40 to 150 nM, respectively.
On to `Cc1c(CN2[C@@H](C)COC[C@@H]2C)n(C(C)C)c2cc(-c3nc(N[C@@H]4C[C@H]5CO[C@H](O5)[C@H]4O)ncc3Cl)ccc2c1=O` [Compound 206, 7-(5-chloro-2-(((1S,3R,4S,5R)-4-hydroxy-6,8-dioxabicyclo[3.2.1]octan-3-yl)amino)pyrimidin-4-yl)-2-(((3S,5S)-3,5-dimethylmorpholino)methyl)-1-isopropyl-3-methylquinolin-4(1H)-one], for which the IC50 in assay [1] was 150 to 1000 nM; in assay [2], no more than 40 nM.
On the same counts, the results for `CC(C)n1c([C@@H]2CC2(F)F)nc2c(F)cc(-c3nc(N[C@@H]4C[C@H]5CO[C@H](O5)[C@H]4O)ncc3Cl)cc21` [Compound 216, (1S,3R,4S,5R)-3-((5-chloro-4-(2-((S)-2,2-difluorocyclopropyl)-4-fluoro-1-isopropyl-1H-benzo[d]imidazol-6-yl)pyrimidin-2-yl)amino)-6,8-dioxabicyclo[3.2.1]octan-4-ol] are 150 to 1000 nM and no more than 40 nM.
In the same order, the values of `Cc1c(-c2nc(N[C@@H]3C[C@H]4CO[C@H](O4)[C@H]3O)ncc2Cl)sc2c(C(C)C)cn(C)c(=O)c12` [Compound 223, 2-(5-chloro-2-(((1S,3R,4S,5R)-4-hydroxy-6,8-dioxabicyclo[3.2.1]octan-3-yl)amino)pyrimidin-4-yl)-7-isopropyl-3,5-dimethylthieno[3,2-c]pyridin-4(5H)-one] are 40 to 150 nM and no more than 40 nM.
On the same counts, the results for `Cc1c(-c2nc(N[C@@H]3C[C@H]4CO[C@H](O4)[C@H]3O)ncc2C(F)F)sc2c(C(C)C)cn(C)c(=O)c12` [Compound 227, 2-(5-(difluoromethyl)-2-(((1S,3R,4S,5R)-4-hydroxy-6,8-dioxabicyclo[3.2.1]octan-3-yl)amino)pyrimidin-4-yl)-7-isopropyl-3,5-dimethylthieno[3,2-c]pyridin-4(5H)-one] are 150 to 1000 nM and no more than 40 nM.

As a reminder, the IC50 is the concentration that inhibits the measured activity by half.

The record behind these values is US20250084095A1, “Aminopyrimidine Derivatives as Cyclin-Dependent Kinase Inhibitors” (Accutar Biotechnology Inc., priority 2023, published 2025).
